The source made the active and inactive calls. The rule behind the calls is not given here.
Test system: CCRIS mutagenicity, Ames/micronucleus/aberration tests
Assay: CCRIS mutagenicity studies
Settings: Test System: AMES SALMONELLA TYPHIMURIUM

CC(C)CCOC(=O)CC(C)C
mutagenic call (Strain/Indicator: TA97, Metabolic Activation: NONE, Method: PREINCUBATION): inactive; negative | mutagenic call (Strain/Indicator: TA97, Metabolic Activation: RAT, LIVER, S-9, AROCLOR 1254, Method: PREINCUBATION): inactive; negative | mutagenic call (Strain/Indicator: TA102, Metabolic Activation: NONE, Method: PREINCUBATION): inactive; negative | mutagenic call (Strain/Indicator: TA102, Metabolic Activation: RAT, LIVER, S-9, AROCLOR 1254, Method: PREINCUBATION): inactive; negative

CN(C)CCN(Cc1ccc(Cl)s1)c1ccccn1
mutagenic call (Strain/Indicator: TA98, Metabolic Activation: HAMSTER, LIVER, S-9, AROCLOR 1254 (10%), Method: PREINCUBATION): inactive; negative | mutagenic call (Strain/Indicator: TA98, Metabolic Activation: NONE, Method: PREINCUBATION): inactive; negative | mutagenic call (Strain/Indicator: TA98, Metabolic Activation: RAT, LIVER, S-9, AROCLOR 1254 (10%), Method: PREINCUBATION): inactive; negative | mutagenic call (Strain/Indicator: TA100, Metabolic Activation: HAMSTER, LIVER, S-9, AROCLOR 1254 (10%), Method: PREINCUBATION): inactive; negative | mutagenic call (Strain/Indicator: TA100, Metabolic Activation: NONE, Method: PREINCUBATION): inactive; negative | mutagenic call (Strain/Indicator: TA100, Metabolic Activation: RAT, LIVER, S-9, AROCLOR 1254 (10%), Method: PREINCUBATION): inactive; negative | mutagenic call (Strain/Indicator: TA1535, Metabolic Activation: HAMSTER, LIVER, S-9, AROCLOR 1254 (10%), Method: PREINCUBATION): inactive; negative | mutagenic call (Strain/Indicator: TA1535, Metabolic Activation: NONE, Method: PREINCUBATION): inactive; negative | mutagenic call (Strain/Indicator: TA1535, Metabolic Activation: RAT, LIVER, S-9, AROCLOR 1254 (10%), Method: PREINCUBATION): inactive; negative | mutagenic call (Strain/Indicator: TA1537, Metabolic Activation: HAMSTER, LIVER, S-9, AROCLOR 1254 (10%), Method: PREINCUBATION): inactive; negative | mutagenic call (Strain/Indicator: TA1537, Metabolic Activation: NONE, Method: PREINCUBATION): inactive; negative | mutagenic call (Strain/Indicator: TA1537, Metabolic Activation: RAT, LIVER, S-9, AROCLOR 1254 (10%), Method: PREINCUBATION): inactive; negative

CN(N=O)C(=O)c1c(N(C)N=O)ncn1C
mutagenic call (Strain/Indicator: TA98, Metabolic Activation: NONE, Method: STANDARD PLATE): inactive; negative | mutagenic call (Strain/Indicator: TA98, Metabolic Activation: S-9, Method: STANDARD PLATE): inactive; negative | mutagenic call (Strain/Indicator: TA100, Metabolic Activation: NONE, Method: STANDARD PLATE): active; positive | mutagenic call (Strain/Indicator: TA100, Metabolic Activation: S-9, Method: STANDARD PLATE): active; positive | mutagenic call (Strain/Indicator: TA102, Metabolic Activation: NONE, Method: STANDARD PLATE): active; positive | mutagenic call (Strain/Indicator: TA102, Metabolic Activation: S-9, Method: STANDARD PLATE): active; positive | mutagenic call (Strain/Indicator: TA1535, Metabolic Activation: NONE, Method: STANDARD PLATE): active; positive | mutagenic call (Strain/Indicator: TA1535, Metabolic Activation: S-9, Method: STANDARD PLATE): active; positive | mutagenic call (Strain/Indicator: TA1537, Metabolic Activation: NONE, Method: STANDARD PLATE): inactive; negative | mutagenic call (Strain/Indicator: TA1537, Metabolic Activation: S-9, Method: STANDARD PLATE): inactive; negative

— PubChem BioAssay AID1259407 (Chemical Carcinogenesis Research Information System (CCRIS), 2018)
